Laboratory results taken from ChEMBL document CHEMBL3885861, “Open TG-GATES”.

Species on record: Rattus norvegicus
Assay: Open TG-GATES - Regimen: Daily Repeat
Type: toxicity, organism-based, Sprague-Dawley
Design: regimen Daily Repeat, gender Male, age 6 weeks
Conditions: in vivo, po, 75 mg/kg, route gavage, dose level Low; for APTT / Bas / Eos / Fbg / Hb / Ht / Lym / MCH / MCHC / MCV / Mono / Neu / PT / Plat / RBC / Ret / WBC: tissue Blood; for KIDNEY_L / KIDNEY_R / KIDNEY_TOTAL: tissue Kidney; for LIVER: tissue Liver; for A/G / ALP / ALT / AST / BUN / CRE / Ca / Cl / DBIL / GLC / IP / K / LDH / Na / PL / RALB / TBIL / TC / TG / TP / gamma-GTP: tissue Plasma

## CN(C/C=C/C#CC(C)(C)C)Cc1cccc2ccccc12 [TERBINAFINE]
72 h, time 3 day
  TERMINAL_BW: 243.4 g
  APTT: 18.6 s
  Bas: 0.8%
  Eos: 0.8%
  Fbg: 233.4 mg/dL
  Hb: 13.4 g/dL
  Ht: 39.5%
  Lym: 80.4%
  MCH: 21.7 pg
  MCHC: 33.7%
  MCV: 64.3 fL
  Mono: 2.8%
  Neu: 15.4%
  PT: 11.5 s
  Plat: 121.6 x10_4/uL
  RBC: 615.4 x10_4/ul
  Ret: 6.2%
  WBC: 111.7 x10_2/uL
  KIDNEY_L: 1.1 g
  KIDNEY_R: 1.1 g
  KIDNEY_TOTAL: 2.1 g
  LIVER: 12.1 g
  A/G: 1.7
  ALP: 854 IU/L
  ALT: 35.2 IU/L
  AST: 67.2 IU/L
  BUN: 14.2 mg/dL
  CRE: 0.4 mg/dL
  Ca: 10.8 mg/dL
  Cl: 103.6 meq/L
  DBIL: 0.1 mg/dL
  GLC: 190.8 mg/dL
  IP: 7.3 mg/dL
  K: 4.2 meq/L
  LDH: 214.6 IU/L
  Na: 141.2 meq/L
  PL: 156 mg/dL
  RALB: 3.6 g/dL
  TBIL: 0.2 mg/dL
  TC: 80.6 mg/dL
  TG: 113.4 mg/dL
  TP: 5.7 g/dL
  gamma-GTP: 2 IU/L
[…], time 7 day
  TERMINAL_BW: 274.5 g
  APTT: 19.2 s
  Bas: 1%
  Eos: 0.6%
  Fbg: 226 mg/dL
  Hb: 13.9 g/dL
  Ht: 40.6%
  Lym: 83%
  MCH: 21.7 pg
  MCHC: 34.3%
  MCV: 63.5 fL
  Mono: 2.4%
  Neu: 13.2%
  PT: 11.9 s
  Plat: 130.9 x10_4/uL
  RBC: 640.8 x10_4/ul
  Ret: 5.2%
  WBC: 112.5 x10_2/uL
  KIDNEY_L: 1.2 g
  KIDNEY_R: 1.2 g
  KIDNEY_TOTAL: 2.4 g
  LIVER: 13.1 g
  A/G: 1.6
  ALP: 944.6 IU/L
  ALT: 36.6 IU/L
  AST: 72.8 IU/L
  BUN: 16.2 mg/dL
  CRE: 0.4 mg/dL
  Ca: 10.6 mg/dL
  Cl: 103.8 meq/L
  DBIL: 0.1 mg/dL
  GLC: 188.2 mg/dL
  IP: 7.1 mg/dL
  K: 4.4 meq/L
  LDH: 217.6 IU/L
  Na: 142 meq/L
  PL: 152.8 mg/dL
  RALB: 3.6 g/dL
  TBIL: 0.2 mg/dL
  TC: 76.2 mg/dL
  TG: 112.8 mg/dL
  TP: 5.8 g/dL
  gamma-GTP: 1 IU/L
[…], time 14 day
  TERMINAL_BW: 333.7 g
  APTT: 20.1 s
  Bas: 1%
  Eos: 1%
  Fbg: 219.4 mg/dL
  Hb: 14.6 g/dL
  Ht: 42.7%
  Lym: 79.8%
  MCH: 20.6 pg
  MCHC: 34%
  MCV: 60.4 fL
  Mono: 2.6%
  Neu: 15.4%
  PT: 11.3 s
  Plat: 129 x10_4/uL
  RBC: 707.4 x10_4/ul
  Ret: 4%
  WBC: 118.9 x10_2/uL
  KIDNEY_L: 1.3 g
  KIDNEY_R: 1.3 g
  KIDNEY_TOTAL: 2.5 g
  LIVER: 15.1 g
  A/G: 1.5
  ALP: 875.8 IU/L
  ALT: 36.8 IU/L
  AST: 71.4 IU/L
  BUN: 17.6 mg/dL
  CRE: 0.4 mg/dL
  Ca: 10.8 mg/dL
  Cl: 103.8 meq/L
  DBIL: 0.1 mg/dL
  GLC: 206.6 mg/dL
  IP: 7.2 mg/dL
  K: 3.8 meq/L
  LDH: 168.2 IU/L
  Na: 142.4 meq/L
  PL: 140.4 mg/dL
  RALB: 3.5 g/dL
  TBIL: 0.2 mg/dL
  TC: 65.4 mg/dL
  TG: 123 mg/dL
  TP: 5.9 g/dL
  gamma-GTP: 0.8 IU/L
[…], time 28 day
  TERMINAL_BW: 399 g
  APTT: 21.8 s
  Bas: 0.8%
  Eos: 1%
  Fbg: 210.8 mg/dL
  Hb: 15 g/dL
  Ht: 42.9%
  Lym: 80.6%
  MCH: 19.7 pg
  MCHC: 34.8%
  MCV: 56.7 fL
  Mono: 2.2%
  Neu: 15%
  PT: 12.2 s
  Plat: 114.8 x10_4/uL
  RBC: 758.2 x10_4/ul
  Ret: 2.7%
  WBC: 135.9 x10_2/uL
  KIDNEY_L: 1.5 g
  KIDNEY_R: 1.6 g
  KIDNEY_TOTAL: 3.1 g
  LIVER: 17.5 g
  A/G: 1.3
  ALP: 602 IU/L
  ALT: 41.4 IU/L
  AST: 76.2 IU/L
  BUN: 17.2 mg/dL
  CRE: 0.5 mg/dL
  Ca: 10.3 mg/dL
  Cl: 104.4 meq/L
  DBIL: 0.086 mg/dL
  GLC: 223.4 mg/dL
  IP: 7.2 mg/dL
  K: 4.1 meq/L
  LDH: 230.6 IU/L
  Na: 141 meq/L
  PL: 127.2 mg/dL
  RALB: 3.4 g/dL
  TBIL: 0.2 mg/dL
  TC: 64.8 mg/dL
  TG: 87.4 mg/dL
  TP: 6.1 g/dL
  gamma-GTP: 1.2 IU/L
